Assay [1] concerns the target T1, IDO in HeLa cell (Homo sapiens, UniProt P14902).
T1 construct: 50 ng/ml cytokine human IFN-γ and drugs with different concentrations; endogenous in cells; host or cells: HeLa cells stimulated with human IFN-γ
Kind of assay: Inhibition of IDO enzyme activity in HeLa cells by Chidamide in combination with IDO inhibitor. In kind it is cell-based. As to conditions: Example 92, Table 6: chidamide and Example 87 alone and in combination, IFN-γ, 48 hours, FIG. 4. Here is the method:
HeLa cells were digested by trypsin, collected and counted, then inoculated in a 96-well cell culture plate at 2×10^4 cells per well and cultured at 5% CO2 and 37° C. After the cells were inoculated overnight, the medium was replaced with 200 μM L-tryptophan phenol red-free DMEM medium, and 50 ng/ml cytokine human IFN-γ and drugs with different concentrations (administered according to the group and final concentration shown in FIG. 1) were added simultaneously, the vehicle control (DMSO) and cytokine-free and L-tryptophan negative control wells were set at the same time, and triplicate wells were set. After 48 hours of drug treatment, 200 μL of the supernatant from culture well was pipetted out, added with 40 μL of pre-prepared 30% (w/v) trichloroacetic acid solution, reacted at 65° C. for 20 minutes, and then centrifuged at 12000 rpm for 15 minutes. 100 μL of the supernatant was pipetted out and added into a 96-well flat bottom plate, then equal volume of 2% p-dimethylaminobenzaldehyde in glacial acetic acid was added and mixed well, and stood at room temperature for 10 minutes. The absorbance value of each well at wavelength of 492 nm was read with microplate reader (ELX800NB). After subtracting the cell-free medium OD492-BLK as a blank control from the reading of each well, the OD492-T of each dosing well with subtraction of the detection background and the […] of drug-free positive control well were obtained.
The relative enzyme activity inhibition rate against IDO of each dosing well cell was calculated according to the following formula: enzyme activity inhibition rate against IDO=(OD492−T0−OD492−T)/OD492−T0×100%

In assay [2] the target is T2, hERG potassium channel (Homo sapiens, UniProt Q12809).
T2 construct: expressed in transfected cells
The assay is described as follows: hERG inhibitory activity assay (patch clamp method), HEK293 cells stably expressing hERG. It counts as cell-based. As to conditions: whole-cell patch clamp, HEK293, 0.3-30 μM, room temperature; read-out: hERG inhibition EC50 value. The source says: Non-cardiac drugs may cause the prolongation of myocardial action potential duration by inhibiting the hERG (IKr) channel, increasing the possibility of life-threatening torsade de pointes (TdP) ventricular arrhythmia. In this experiment, HEK293 cell line without endogenous IKr current was used as host cell (this cell line was widely used in the detection of hERG) to evaluate the cardiotoxicity of Example 85 in patent CN108203438A and Example 87 of the present application.
(1) HEK293 cell line stably expressing hERG potassium channel was cultured in DMEM medium containing 10% fetal bovine serum and 0.8 mg/mL G418 under the condition of 37° C. and 5% CO2. […]
A capillary glass tube was drawn into a recording electrode with a microelectrode puller. […] Then, slow capacitance compensation was performed, and the membrane capacitance and series resistance were recorded. […]
When the hERG current of the whole-cell recording was stabilized, the drug was administered. […] The current detected for each cell in the compound-free extracellular fluid was used as its own control group. […]
[formula] and then the inhibition rate corresponding to each concentration was calculated
[formula] For each concentration, mean number and standard error were calculated, and the following equation was used to calculate the half inhibitory concentration of each compound: […]
A general note: hERG is a cardiac potassium channel; its block is linked to QT prolongation.

Assay [3] deals with CT-26 tumor. The assay is described as follows: Efficacy experiment on Balb/c mouse CT-26 tumor model. In kind it is in vivo. As to conditions: Example 96, Table 10: chidamide and Example 87 alone and in combination; method similar to Example 93.
Assay [4] deals with T3, human indoleamine 2,3-dioxygenase 1 (hIDO1) (Homo sapiens, UniProt P14902).
T3 construct: up-regulate the expression of endogenous IDO1 under the induction of human IFN-γ; endogenous in cells; host or cells: HeLa cells stimulated with human IFN-γ
Kind of assay: Inhibitory activity test at cellular level: IFN-γ-induced HeLa cells, kynurenine colour reaction. It counts as cell-based. As to conditions: 50 ng/ml human IFN-γ, 200 μM L-tryptophan, 48 hours, each test compound 100 nM, read-out: hIDO1-cell base inhibition rate (%). The source says: The subject of this assay was to comprehensively evaluate different compounds on their enzymatic inhibitory activity in vitro and on cell models against human indoleamine 2,3-dioxygenase 1 (hIDO1).
In the present application, the inventors used Hela cells expressing IDO1 induced by IFN-γ as a model, to test the IDO1 inhibitory activity of the compounds at the cellular level.
HeLa cells are human cervical cancer cell lines, which can up-regulate the expression of endogenous IDO1 under the induction of human IFN-γ. By adding the substrate L-tryptophan to cell culture medium, the enzymatic catalysis product kynurenine in cell supernatant was detected. In this experiment, the cultured Hela cells were used and co-incubated with different concentrations of test compounds under stimulation of human IFN-γ for a specified period of time, and the color reaction method of enzyme product and p-dimethylaminobenzaldehyde was used to detect the effect on IDO enzyme activity of cells treated by the test compounds.
(1) Hela cells were inoculated into 96-well culture plates at an appropriate concentration (about 20,000 cells/well). […] The cells were continuously cultured for 48 hours before detection.
(2) 200 μL of the supernatant in the culture well was pipetted out, added with 40 μL of the pre-prepared 30% (w/v) trichloroacetic acid solution, and reacted at 65° C. for 20 minutes, and then centrifuged at 12000 rpm for 15 minutes.
(3) 100 μL of the supernatant after centrifugation was pipetted out, added into a 96-well flat bottom plate, then added with an equal volume of 2% p-dimethylaminobenzaldehyde in glacial acetic acid and mixed well, and stood at room temperature for 10 minutes.
(4) microplate reader (ELX800NB) was used to detect the absorbance value of each well, and the detection wavelength was 492 nm.
In addition, after the cell enzyme activity inhibition rates of test compounds with different concentration gradients were separately calculated, their cell enzyme activity half inhibition concentrations (EC50) were calculated by using EC50 calculator.
According to the above-mentioned experimental method, the compounds of the present application were subjected to IDO1 enzymatic evaluation at cytological level (the concentration of each test compound was all 100 nM).
According to the above-mentioned experimental method, the compound of the present application was subjected to hIDO1-cell base EC50 detection.

One molecule from patent US12551478B2, “Quinoline derivative having indoleamine-2,3-dioxygenase inhibitory activity” (SHENZHEN CHIPSCREEN BIOSCIENCES CO., LTD., priority 2018, dated 2026) can be followed below.

Molecules are shown by their SMILES.

T2 sequence (Q12809 whole entry): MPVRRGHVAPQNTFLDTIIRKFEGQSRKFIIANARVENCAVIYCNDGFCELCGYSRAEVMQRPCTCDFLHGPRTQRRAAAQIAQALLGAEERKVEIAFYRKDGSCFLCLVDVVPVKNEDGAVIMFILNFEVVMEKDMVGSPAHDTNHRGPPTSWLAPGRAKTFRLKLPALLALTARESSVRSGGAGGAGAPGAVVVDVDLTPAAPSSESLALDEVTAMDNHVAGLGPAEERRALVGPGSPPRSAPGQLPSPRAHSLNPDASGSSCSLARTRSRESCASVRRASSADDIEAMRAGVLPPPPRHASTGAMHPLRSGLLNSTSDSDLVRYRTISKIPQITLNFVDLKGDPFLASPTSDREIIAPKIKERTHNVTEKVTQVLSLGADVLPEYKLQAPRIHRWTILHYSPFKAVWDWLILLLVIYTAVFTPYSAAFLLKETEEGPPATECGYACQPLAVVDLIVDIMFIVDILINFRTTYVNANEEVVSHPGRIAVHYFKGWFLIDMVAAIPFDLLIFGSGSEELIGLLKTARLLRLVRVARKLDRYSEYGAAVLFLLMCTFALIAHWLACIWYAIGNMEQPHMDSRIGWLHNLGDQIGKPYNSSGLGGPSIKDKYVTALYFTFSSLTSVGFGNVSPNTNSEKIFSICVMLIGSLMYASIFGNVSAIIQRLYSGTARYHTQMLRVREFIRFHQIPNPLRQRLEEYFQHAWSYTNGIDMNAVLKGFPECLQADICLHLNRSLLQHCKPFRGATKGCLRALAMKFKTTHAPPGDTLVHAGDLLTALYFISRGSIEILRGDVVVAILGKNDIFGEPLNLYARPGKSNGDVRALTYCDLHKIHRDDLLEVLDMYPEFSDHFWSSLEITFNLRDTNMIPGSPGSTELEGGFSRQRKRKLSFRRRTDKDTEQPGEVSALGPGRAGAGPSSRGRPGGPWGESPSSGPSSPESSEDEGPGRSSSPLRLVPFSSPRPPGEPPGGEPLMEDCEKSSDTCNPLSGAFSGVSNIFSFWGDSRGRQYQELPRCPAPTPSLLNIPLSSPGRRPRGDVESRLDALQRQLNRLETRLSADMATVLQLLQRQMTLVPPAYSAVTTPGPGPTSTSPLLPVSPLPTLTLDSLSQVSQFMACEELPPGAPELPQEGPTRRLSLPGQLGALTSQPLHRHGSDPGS
T1 sequence (P14902 whole entry): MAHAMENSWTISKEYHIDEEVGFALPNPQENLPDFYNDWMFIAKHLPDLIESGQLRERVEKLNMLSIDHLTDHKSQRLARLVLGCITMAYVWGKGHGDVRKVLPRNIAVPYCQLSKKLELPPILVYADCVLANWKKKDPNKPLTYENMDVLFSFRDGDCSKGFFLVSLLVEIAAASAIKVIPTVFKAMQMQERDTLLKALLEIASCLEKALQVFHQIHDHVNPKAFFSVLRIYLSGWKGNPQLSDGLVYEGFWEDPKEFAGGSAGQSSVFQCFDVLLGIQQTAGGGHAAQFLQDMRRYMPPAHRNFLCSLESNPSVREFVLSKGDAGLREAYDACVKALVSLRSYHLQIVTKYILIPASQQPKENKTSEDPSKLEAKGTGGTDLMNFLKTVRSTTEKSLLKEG
T3 sequence (P14902 whole entry): as above

Turning to `O=C(CNc1ccc2c(c1)OCO2)N1CCC(C(O)CC2c3c(F)cccc3-c3cncn32)CC1` (stereo not shown) [Example 87, 2-(benzo[d][1,3]dioxol-5-yl-amino)-1-(4-(2-(6-fluoro-5H-imidazo[5,1-a)isoindol-5-yl)-1-hydroxyethyl)piperidin-1-yl)ethyl-1-one], the “Average inhibition rate (%) against IDO” value in assay [1] is listed as 20%. In assay [2], the EC50 (as a rule, the concentration needed to bring the measured effect to its halfway point) was 4.6 µM. Moreover, the “Relative tumor inhibition rate (%)” value in assay [3] is 45%. The inhibition (usually the share of the control response that was lost under treatment) at 0.1 µM in assay [4] was 23%.
